From patent US20250092360A1, “METHODS AND COMPOSITIONS FOR GENERATING SOMATOSTATIN+ INTERNEURONS FROM HUMAN FOREBRAIN NEURAL PROGENITOR CELLS” (Trailhead Biosystems Inc., priority 2023, published 2025) come the findings set out here.

What all share (type): cell-based, human
Assay [1] has as its system forebrain-committed neural progenitor cells. Briefly: HD-DoE stage 5, 12-factor experiment (96 combinatorial media): Somatostatin expression. The note with it: for impact on expression of Somatostatin: FIG. 26 dynamic profile, in words; for factor contribution, expression of Somatostatin: positive, 12-factor experiment of FIG. 25. The method, then:
In another HD-DoE experiment, the results of which are shown in FIG. 25, cells were differentiated in 96 different combinatorial media made of 12 factors. These cells were treated with stage 1 to stage 4 medium for a total of 12 days prior to the experiment. […] In this model, we focused on maximum expression of Somatostatin gene expressed in somatostatin (+) interneurons. When the model was optimized for maximum expression of Somatostatin, BDNF, 2-phosph-L-Ascorbic Acid, O-LPA, N2 and Prostratin had the highest factor contributions, 1.75, 10.6, 2.7, 9.2 and 6.4 respectively. […]

Assay [2] has the same test system. Briefly: Factor criticality analysis, stage 5 recipe. The note with it: for contribution to the expression of SST: stage 5, experiment of FIG. 28, in words; for effect on PVALB expression / effect on Somatostatin expression: stage 5, experiment of FIG. 30, in words. The protocol: To assess the impact of elimination of each validated factor, dynamic profile analysis was again used to compare the expression levels of genes of interest in the absence of each finalized factor while the others were present in the media.
In the stage 5 recipe, each of seven finalized factors was removed while the other six factors remained present in the media and the expression levels of SST and PVALB were assessed compared to the presence of all seven factors. […] Thus, BDNF, (−)-Indolactam-V, and 2-phosph-L-Ascorbic Acid were included in the stage 5 recipe. […] Thus, they were excluded from the recipe. […] Therefore, these effectors were included in the stage 5 recipe for SST maturation.

For assay [3] the test system is unchanged. Description: HD-DoE stage 5, 8-factor experiment (JQ1, Indolactam-V ...): Somatostatin expression. The note with it: for impact on expression of Somatostatin: FIG. 21/22, in words; for factor contribution, expression of Somatostatin: positive, 8-factor experiment of FIG. 21. The protocol:
To further guide the differentiation of forebrain-committed neural progenitor cells to somatostatin interneuron cells at stage 5, HD-DoE experiments were performed for 3 days after termination of stage 4 treatment. At this time, we focused on maximum expression of SST that was expressed in Somatostatin (+) interneurons and minimum expression of Parvalbumin that is another type of interneurons. This 8-factor experiment included JQ1, (−)-Indolactam-V, Oleic acid, BDNF, IGF-1, 2-phospho-L-Ascorbic acid, Albumax, MK2206. When the model was maximized for expression of Somatostatin, six effectors were identified that could increase its expression levels, including (−)-Indolactam-V, Oleic acid, BDNF, 2-phospho-L-ascorbic acid, Albumax, and MK2206, as shown in FIG. 21. Using dynamic profile analysis, the results of which are shown in FIG. 22, the model was modified to achieve the maximum expression level of Somatostatin and therefore (−)-Indolactam-V, BDNF, and 2-phospho-L-ascorbic acid were included while JQ-1, Oleic acid, Albumax and MK2206 were excluded. Considering the model at different optimization settings for maximum differentiation of cells toward ventral forebrain, the recipe for stage 5 of differentiation included (−)-Indolactam-V, BDNF, IGF-1, and 2-phospho-L-ascorbic acid from this HD-Doe experiment.

In assay [4] the test system is forebrain-committed neural stem cells. Briefly: HD-DoE stage 2, 12-factor experiment: NKX2-1 expression. The method, then:
To further guide the differentiation of forebrain-committed neural stem cells to ventral forebrain neural stem cells at stage 2, a HD-DoE experiment was performed for 3 days after termination of stage 1 treatment. […] This 12-factor experiment included LDN193189, BMP7, PD0325901, MK2206, A8301, XAV939, CHIR99021, Purmorphamine, SANT-1, AGN193109, TTNPB and GSI-XX. […]

In assay [5] the test system is forebrain-committed neural progenitor cells. Briefly: HD-DoE stage 5, 8-factor experiment (GDNF, BDNF, NT-3 ...): Somatostatin expression. The protocol: To investigate the effects of other factors on differentiation of forebrain-committed neural progenitor cells to Somatostatin interneuron cells, an additional HD-DoE experiment was performed for 3 days on cells that were treated with stage 1 to stage 4 medium for a total of 12 days prior to the new experiment. This experiment, the results of which are shown in FIG. 23, included eight effectors, GDNF, BDNF, NT-3, ß-NGF, Linoleic acid, 5-Cholesten-3β, LIF and TGF-β3. In this model, we focused on maximum expression of Somatostatin gene expressed in Somatostatin (+) interneurons (Urban-Ciecko and Barth (2016) Nature Reviews Neurosci. 17:401-409). When the model was optimized for maximum expression of Somatostatin, BDNF, NT-3, beta-NGF and Linoleic acid had the highest factor contributions, 25.7, 2, 19.9, 23.5, respectively.
Therefore, the latter were excluded in the recipe.

Several values for one entry are separate records, joined by “and”; a condition that tells them apart may be missing. Identical values can stand only once. Entries after “also recorded” stand apart in the source; their conditions may differ.

Regarding `O=C1O[C@H]([C@@H](O)CO)C(O)=C1OP(=O)(O)O` [2-phospho-L-ascorbic acid], the “impact on expression of Somatostatin” value in assay [1] (listed as 2-phosph-L-Ascorbic Acid) is reported as “significant positive effect; also recorded: positive impact”. Besides, in assay [1], the “factor contribution, expression of Somatostatin” value is on record as 10.6. For the same molecule, in assay [2], the “contribution to the expression of SST” value is reported as “positive contributions”, the “effect on PVALB expression” value is “not to PVALB expression” and the “effect on Somatostatin expression” value is reported as “contribute”. Besides, in assay [3], the “impact on expression of Somatostatin” value is “increase” and the “factor contribution, expression of Somatostatin” value stood at 4. For the same molecule, the “impact on expression of Somatostatin” value in assay [3] (listed as 2-phospho-L-Ascorbic acid) was “positive impact”.
On to `Cc1cc(SCc2sc(-c3ccc(C(F)(F)F)c(F)c3)nc2C)ccc1OCC(=O)O` [GW0742], for which the “impact on expression of Somatostatin” value in assay [1] is recorded as “significant negative impact”.
For `CCCCCCCC/C=C\CCCCCCCC(=O)OC[C@@H](O)COP(=O)(O)O` [O-LPA], the “factor contribution, expression of Somatostatin” value in assay [1] is 2.7.
As for `CCCCCCCC/C=C\CCCCCCCC(=O)O` [Oleic acid], in assay [3], the “impact on expression of Somatostatin” value is “increase; also recorded: positive impact” and the “factor contribution, expression of Somatostatin” value is given as 7.4.
Take `CC(=O)O[C@@]12C[C@@H](C)[C@@]3(O)[C@@H](C=C(CO)C[C@]4(O)C(=O)C(C)=C[C@@H]34)[C@@H]1C2(C)C` [Prostratin]: in assay [1], the “impact on expression of Somatostatin” value was “significant positive effect; also recorded: positive impact” and the “factor contribution, expression of Somatostatin” value is recorded as 6.4. Further, in assay [2], the “effect on PVALB expression” value is “not to PVALB expression” and the “effect on Somatostatin expression” value is on record as “contribute”.
With `Cc1nn(-c2ccccc2)c(C)c1/C=N/N1CCN(Cc2ccccc2)CC1` [SANT-1], the “impact on expression of NKX2-1” value in assay [4] (model / dynamic profile, in words) is on record as “negative impact”. In addition, the “factor contribution, expression of NKX2-1” value in assay [4] (negative role, model optimized for maximum NKX2-1) is 26.3.
As to `CC(=O)C(=O)[O-].[Na+]` [Sodium Pyruvate], the “impact on expression of Somatostatin” value in assay [1] is recorded as “significant negative impact”.
Take `COC(=O)CCC(=O)C(=O)OC` [dm-αKG]: the “impact on expression of Somatostatin” value in assay [1] is on record as “significant negative impact”.
For (−)-Indolactam-V, the “contribution to the expression of SST” value in assay [2] is recorded as “positive contributions”. Moreover, in assay [3], the “impact on expression of Somatostatin” value is recorded as “increase; also recorded: positive impact” and the “factor contribution, expression of Somatostatin” value is listed as 5.2.

B1: BDNF: brain-derived neurotrophic factor; BDNF pathway agonist (protein, UniProt P23560 129-247, looked up)
Neurotrophic factor BDNF: HSDPARRGELSVCDSISEWVTAADKKTAVDMSGGTVTVLEKVPVSKGQLKQYFYETKCNPMGYTKEGCRGIDKRHWNSQCRTTQSYVRALTMDSKKRIGWRFIRIDTSCVCTLTIKRGR
modifications: Neurotrophic factor BDNF
notes: brain-derived neurotrophic factor; BDNF pathway agonist
Regarding B1, the “impact on expression of Somatostatin” value was “significant positive effect; also recorded: positive impact” in assay [1]; “significant effect; also recorded: positive effect; also recorded: positive impact” in assay [5] (FIG. 24 dynamic profile, in words); “increase; also recorded: positive impact” in assay [3]. For the same molecule, the “factor contribution, expression of Somatostatin” value in assay [1] is 1.75 and 1.7; in assay [5] (positive, 8-factor experiment of FIG. 23), 25.7; in assay [3], 8.1. The “contribution to the expression of SST” value in assay [2] was “positive contributions”. Also, the “effect on expression of Somatostatin” value in assay [2] (stage 5, experiment of FIG. 29, in words) is “contribute to the maximal expression”. In addition, in assay [2], the “effect on PVALB expression” value is reported as “not to PVALB expression”. The “effect on Somatostatin expression” value in assay [2] is reported as “contribute”.
